This note sets out measurements from PubChem BioAssay (NCI).

“And” between values parts separate entries of the source, which are not always exact repeats. Identical values can stand only once.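 Tested at 5 concentrations; 48 h exposure; 96-well plates; endpoints linearly interpolated, else capped at highest concentration. At the GI50, growth is halved. TGI is the concentration that stops growth completely.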 A value given as a limit tells only on which side of the number the result lay.

The first assay concerns OVCAR-5 ovarian. Kind of assay: NCI-60 cell line screen, 48 h.
As for `CCCCCCCCCCCCCCCCCC(CCCCCCCCCCCCCCCCC)OP(=O)(O)O`, the TGI was over 100 µM.

As for `Cc1ccc(NC2=C(Cl)C(=O)N(Cc3ccccc3)C2=O)cc1O`, the GI50 is over 100 µM and the TGI was over 100 µM.

For `N#CCCN(CCC#N)c1ccc(/C=C2\N=C(c3cc([N+](=O)[O-])ccc3Cl)OC2=O)cc1`, the TGI is over 100 µM.

As to `O=C1C2C(C(=O)N1OS(=O)(=O)c1ccccc1)N(Cc1ccccc1)C(=O)N2Cc1ccccc1` (stereo not drawn), the TGI was over 100 µM.

`O=C(COc1ccc(Br)cc1Br)N1N=C(c2ccc([N+](=O)[O-])o2)CC1(O)c1ccccc1` (stereo not drawn) showed a TGI of 98.2 µM.

In the case of `O=C(Nc1ccccc1OC(F)(F)F)Nc1n[nH]c2ccccc12`, the GI50 was 34.3 µM and the TGI was over 100 µM.

Turning to `N#CC(c1ccc(Cl)cc1)c1cccc(C(C#N)c2ccc(Cl)cc2)n1` (stereo not drawn), the TGI is over 100 µM.

As to `Cc1nc2ccccc2c(=O)n1-c1ccccc1I`, the TGI is over 100 µM.

In turn, `O=C1/C(=C/c2ccccc2)CN(C(=O)C(Cl)(Cl)Cl)C/C1=C\c1ccccc1` had a TGI of 6.42 µM.

In turn, `CN(C)C(=N)c1ccccc1` gave a TGI of over 100 µM.

Regarding `Cc1cc(I)cc(CN(C)CCCCN2CCCCC2)c1O`, the GI50 is 14.3 µM and the TGI was 40.5 µM.

In turn, `CN/N=C(/Cc1occc(=O)c1O)C(=O)Nc1ccccc1C` yielded a TGI of over 100 µM.

A further assay deals with SF-539 CNS. Nature of the assay: NCI-60 cell line screen, 48 h.
For `CCOC(=O)[C@]1(OC(C)=O)C[C@H](OC(C)=O)[C@@H](C(F)COP(=O)(OCc2ccccc2)OCc2ccccc2)O1` (stereo partly drawn), the TGI was over 100 µM.

Consider `CC[C@@]1(O)C[C@H](OC2CC(N(C)C)C(O)C(C)O2)c2c(O)c3c(c(O)c2[C@H]1OC1CC(N(C)C)C(O)C(C)O1)C(=O)c1cccc(O)c1C3=O` (stereo partly drawn), for which the GI50 is under 0.01 µM; the TGI is 0.212 µM and 0.183 µM.

As to `CCCCCN(CCCCC)CC(O)c1cc(C)c2ccc3cc(C(C)C)ccc3c2c1` (stereo not drawn), the GI50 is 1.79 µM and the TGI came to 3.36 µM.

`COC(=O)CC1CCN(C#N)CC1CC[N+](=O)[O-]` (stereo not drawn) had a TGI of over 100 µM.

Regarding `CC(C)CCC[C@@H](C)[C@H]1CC[C@H]2[C@@H]3CC=C4C[C@@H](C(C(=O)O)C(=O)O)CC[C@]4(C)[C@H]3CC[C@]12C`, the GI50 is 0.107 µM and the TGI turned out to be 0.407 µM.

With `COc1ccc(-c2nc3sccn3c2/C(N)=N/C(=N)N)cc1OC`, the GI50 is 25.7 µM and the TGI is 66 µM.

`CC1=C(C(=O)Nc2ccc(Cl)c(Cl)c2)C(c2cccc(Oc3ccccc3)c2)NC(=S)N1` (stereo not drawn): the GI50 is 6.6 µM and the TGI is 13 µM.

The molecule `Nc1ccccc1SC(C[N+](=O)[O-])c1ccc2c(c1)OCO2` (stereo not drawn) showed a TGI of 4.98 µM.

Regarding `Cc1ccc(NC2=C(Cl)C(=O)N(Cc3ccccc3)C2=O)cc1O`, the GI50 is 25 µM and the TGI was 76 µM.

The molecule `N#CCCN(CCC#N)c1ccc(/C=C2\N=C(c3cc([N+](=O)[O-])ccc3Cl)OC2=O)cc1` displayed a TGI of over 100 µM.

For the molecule `O=C1C2C(C(=O)N1OS(=O)(=O)c1ccccc1)N(Cc1ccccc1)C(=O)N2Cc1ccccc1` (stereo not drawn), the TGI was over 100 µM.

For `O=C(Nc1ccccc1OC(F)(F)F)Nc1n[nH]c2ccccc12`, the GI50 is 30.5 µM and the TGI is over 100 µM.

Molecule `O=C1/C(=C/c2ccccc2)CN(C(=O)C(Cl)(Cl)Cl)C/C1=C\c1ccccc1` displayed a TGI of 9.91 µM.

Molecule `CN(C)C(=N)c1ccccc1` yielded a TGI of over 100 µM.

For `Cc1cc(I)cc(CN(C)CCCCN2CCCCC2)c1O`, the GI50 was 12 µM and the TGI was found to be 25.1 µM.

Consider `CN/N=C(/Cc1occc(=O)c1O)C(=O)Nc1ccccc1C`, for which the TGI is over 100 µM.

The next assay deals with OVCAR-8 ovarian. Nature of the assay: NCI-60 cell line screen, 48 h.
In the case of `CCOC(=O)[C@]1(OC(C)=O)C[C@H](OC(C)=O)[C@@H](C(F)COP(=O)(OCc2ccccc2)OCc2ccccc2)O1` (stereo partly drawn), the TGI was over 100 µM.

With `CC[C@@]1(O)C[C@H](OC2CC(N(C)C)C(O)C(C)O2)c2c(O)c3c(c(O)c2[C@H]1OC1CC(N(C)C)C(O)C(C)O1)C(=O)c1cccc(O)c1C3=O` (stereo partly drawn), the GI50 was under 0.01 µM; the TGI is 0.4 µM and 1.1 µM.

For `CC1(C)CCc2c(c3c(c4c(=O)c(O)c(-c5ccc(O)cc5)oc24)OC(C)(C)CC3)O1`, the GI50 was 36.3 µM and the TGI is over 100 µM.

As to `CCCCCN(CCCCC)CC(O)c1cc(C)c2ccc3cc(C(C)C)ccc3c2c1` (stereo not drawn), the GI50 was 2.55 µM and the TGI came to 6.46 µM.

The molecule `COC(=O)CC1CCN(C#N)CC1CC[N+](=O)[O-]` (stereo not drawn) had a TGI of over 100 µM.

`CC(C)CCC[C@@H](C)[C@H]1CC[C@H]2[C@@H]3CC=C4C[C@@H](C(C(=O)O)C(=O)O)CC[C@]4(C)[C@H]3CC[C@]12C`: the GI50 was 0.158 µM and the TGI was found to be 0.807 µM.

`COc1ccc(-c2nc3sccn3c2/C(N)=N/C(=N)N)cc1OC`: the GI50 was 43.8 µM and the TGI is over 100 µM.

Turning to `CC1=C(C(=O)Nc2ccc(Cl)c(Cl)c2)C(c2cccc(Oc3ccccc3)c2)NC(=S)N1` (stereo not drawn), the GI50 is 7.8 µM and the TGI was determined as 16.8 µM.

`Nc1ccccc1SC(C[N+](=O)[O-])c1ccc2c(c1)OCO2` (stereo not drawn) yielded a TGI of 11 µM.

On to `CCCCCCCCCCCCCCCCCC(CCCCCCCCCCCCCCCCC)OP(=O)(O)O`, for which the TGI was over 100 µM.

With `Cc1ccc(NC2=C(Cl)C(=O)N(Cc3ccccc3)C2=O)cc1O`, the GI50 was 26.1 µM and the TGI was over 100 µM.

In turn, `N#CCCN(CCC#N)c1ccc(/C=C2\N=C(c3cc([N+](=O)[O-])ccc3Cl)OC2=O)cc1` registered a TGI of 37.7 µM.

In turn, `O=C(COc1ccc(Br)cc1Br)N1N=C(c2ccc([N+](=O)[O-])o2)CC1(O)c1ccccc1` (stereo not drawn) displayed a TGI of 36.7 µM.

Turning to `O=C(Nc1ccccc1OC(F)(F)F)Nc1n[nH]c2ccccc12`, the GI50 is 29.6 µM and the TGI is over 100 µM.

`N#CC(c1ccc(Cl)cc1)c1cccc(C(C#N)c2ccc(Cl)cc2)n1` (stereo not drawn) yielded a TGI of over 100 µM.

Regarding `Cc1nc2ccccc2c(=O)n1-c1ccccc1I`, the TGI was over 100 µM.

`O=C1/C(=C/c2ccccc2)CN(C(=O)C(Cl)(Cl)Cl)C/C1=C\c1ccccc1` registered a TGI of 3.1 µM.

`CN(C)C(=N)c1ccccc1` returned a TGI of over 100 µM.

Consider `Cc1cc(I)cc(CN(C)CCCCN2CCCCC2)c1O`, for which the GI50 is 36.5 µM and the TGI is over 100 µM.

In turn, `CN/N=C(/Cc1occc(=O)c1O)C(=O)Nc1ccccc1C` had a TGI of over 100 µM.
